# Measured values taken from US9113629B2, “4-amino-6-(4-substituted-phenyl)-picolinates and 6-amino-2-(4-substituted-phenyl)-pyrimidine-4-carboxylates and their use as herbicides” (DOW AGROSCIENCES LLC, priority 2013, dated 2015).
# Like-named read-outs stand apart in the source and are kept apart here.
# Legend:
# [1] = system: Key Broadleaf Weed and Crop Species; assay: Post-emergent Test II herbicidal activity (Table 5); assay type: in vivo; settings: post-emergence, 336 h, 14 days after application; for pest or weed control at 70 g/ha: application rate 70 g ai/ha; for pest or weed control at 140 g/ha: application rate 140 g ai/ha
# Method in brief: (§1)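 Visual injury ratings (0 = no injury, 100 = complete kill) were taken 14 d after treatment, relative to untreated plants. Seedlings at the first–second true leaf stage received overhead spray at 187 L/ha; the highest rate was serially diluted to ½×, ¼×, ⅛× and 1/16×.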
# [2] = system: Key Grass and Sedge Weeds as well as Grass Crops; assay: Post-emergent Test II herbicidal activity (Table 6); assay type: in vivo; settings: post-emergence, 336 h; for pest or weed control at 70 g/ha: 70 g ai/ha; for pest or weed control at 140 g/ha: 140 g ai/ha
# Method in brief: as §1
# [3] = ABUTH: velvetleaf (Abutilon theophrasti), read-out: Visual Growth Reduction (%) 14 Days After Application, ABUTH
# [4] = AMARE: redroot pigweed (Amaranthus retroflexus), read-out: Visual Growth Reduction (%) 14 Days After Application, AMARE
# [5] = BRSNN: oilseed-rape, canola (Brassica napus), read-out: Visual Growth Reduction (%) 14 Days After Application, BRSNN
# [6] = CHEAL: lambsquarters (Chenopodium album), read-out: Visual Growth Reduction (%) 14 Days After Application, CHEAL
# [7] = EPHHL: wild poinsettia (Euphorbia heterophylla), read-out: Visual Growth Reduction (%) 14 Days After Application, EPHHL
# [8] = HELAN: sunflower (Helianthus annuus), read-out: Visual Growth Reduction (%) 14 Days After Application, HELAN
# [9] = VIOTR: wild pansy (Viola tricolor), read-out: Visual Growth Reduction (%) 14 Days After Application, VIOTR
# [10] = CYPES: yellow nutsedge (Cyperus esculentus), read-out: Visual Growth Reduction (%) 14 Days After Application, CYPES
# [11] = DIGSA: crabgrass (Digitaria sanguinalis), read-out: Visual Growth Reduction (%) 14 Days After Application, DIGSA
# [12] = ECHCG: barnyardgrass (Echinochloa crus-galli), read-out: Visual Growth Reduction (%) 14 Days After Application, ECHCG
# [13] = ORYSA: rice (Oryza sativa), crop, read-out: Visual Growth Reduction (%) 14 Days After Application, ORYSA
# [14] = SETFA: giant foxtail (Setaria faberi), read-out: Visual Growth Reduction (%) 14 Days After Application, SETFA
# [15] = SORVU: grain sorghum (Sorghum vulgare), read-out: Visual Growth Reduction (%) 14 Days After Application, SORVU
# [16] = TRZSS (wheat, Triticum aestivum), crop, read-out: Visual Growth Reduction (%) 14 Days After Application, TRZSS
# [17] = ZEAMX: maize, corn (Zea mays), crop, read-out: Visual Growth Reduction (%) 14 Days After Application, ZEAMX
smiles,measurement,setting,value
COC(=O)c1nc(-c2ccc(I)cc2)cc(N)c1Cl [Compound 158],pest or weed control at 70 g/ha,[1]; [3],95 to 100%
same,pest or weed control at 140 g/ha,[1]; [3],95 to 100%
same,pest or weed control at 70 g/ha,[1]; [4],95 to 100%
same,pest or weed control at 140 g/ha,[1]; [4],95 to 100%
same,pest or weed control at 70 g/ha,[1]; [5],60 to 74%
same,pest or weed control at 140 g/ha,[1]; [5],75 to 84%
same,pest or weed control at 70 g/ha,[1]; [6],95 to 100%
same,pest or weed control at 140 g/ha,[1]; [6],95 to 100%
same,pest or weed control at 70 g/ha,[1]; [7],95 to 100%
same,pest or weed control at 140 g/ha,[1]; [7],95 to 100%
same,pest or weed control at 70 g/ha,[1]; [8],75 to 84%
same,pest or weed control at 140 g/ha,[1]; [8],75 to 84%
same,pest or weed control at 70 g/ha,[1]; [9],0 to 29%
same,pest or weed control at 140 g/ha,[1]; [9],0 to 29%
same,pest or weed control at 70 g/ha,[2]; [10],45 to 59%
same,pest or weed control at 140 g/ha,[2]; [10],45 to 59%
same,pest or weed control at 70 g/ha,[2]; [11],60 to 74%
same,pest or weed control at 140 g/ha,[2]; [11],60 to 74%
same,pest or weed control at 70 g/ha,[2]; [12],60 to 74%
same,pest or weed control at 140 g/ha,[2]; [12],75 to 84%
same,pest or weed control at 70 g/ha,[2]; [13],0 to 29%
same,pest or weed control at 140 g/ha,[2]; [13],0 to 29%
same,pest or weed control at 70 g/ha,[2]; [14],0 to 29%
same,pest or weed control at 140 g/ha,[2]; [14],0 to 29%
same,pest or weed control at 70 g/ha,[2]; [15],85 to 94%
same,pest or weed control at 140 g/ha,[2]; [15],85 to 94%
same,pest or weed control at 70 g/ha,[2]; [16],0 to 29%
same,pest or weed control at 140 g/ha,[2]; [16],45 to 59%
same,pest or weed control at 70 g/ha,[2]; [17],0 to 29%
same,pest or weed control at 140 g/ha,[2]; [17],0 to 29%
